Laboratory results published in patent US7705153B2, “Bipiperdine derivatives useful as CCR3 antagonists” (Schering Corporation, priority 2004, dated 2010).

Legend:
human CCR3 [1] = target: T1, human CCR3 (Homo sapiens, UniProt P51677); assay: CCR3 SPA-based receptor binding assay; parameters: host or cells: Y3 cell line (rat), selected with G418; settings: [125I]-eotaxin competition, membranes from human CCR3 transfected Y3 cell line
T1 sequence (P51677 1-355): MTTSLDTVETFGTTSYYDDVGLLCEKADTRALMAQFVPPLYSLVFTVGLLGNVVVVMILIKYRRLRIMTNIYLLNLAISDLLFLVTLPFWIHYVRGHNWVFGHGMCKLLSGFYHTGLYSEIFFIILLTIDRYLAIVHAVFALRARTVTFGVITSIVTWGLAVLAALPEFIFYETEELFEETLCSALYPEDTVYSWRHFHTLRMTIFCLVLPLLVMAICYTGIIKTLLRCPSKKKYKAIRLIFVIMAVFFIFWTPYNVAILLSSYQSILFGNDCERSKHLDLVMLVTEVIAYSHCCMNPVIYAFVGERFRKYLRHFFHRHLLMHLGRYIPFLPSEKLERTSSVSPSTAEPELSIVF
Description: CCR3 SPA-Based Receptor Binding Assay:
The procedure used was disclosed in Dairaghi et al, J. Biol. Chem., 272 (1997), pg. 28206-28209, and is described in detail below.
The source of the CCR3 receptors for this assay was purified membranes from a human CCR3 transfected Y3 cell line. Membranes were prepared by MDS Pharma Services (Bothell, Wash.) as follows. Cells were grown under selection (1 mg/ml G418) in 50-stack cube bioreactors with minimal media recirculation. Cells were harvested with trypsin and washed once with PBS. Cells were resuspended in 20 volumes of ice cold 2.5 mM Tris-HCl, pH 7.4 containing protease inhibitors (0.3 mM PMSF, 3 μg/ml aprotinin, 3 μg/ml luepeptin) and incubated on ice for 15 min. The swollen cells were lysed by vigorous vortexing and large debris was removed by centrifugation (1200 rpm, 5 min., 4° C.). The cleared lysate was subjected to ultra-centrifugation (100,000×g, 1 hr., 4° C.) to pellet the membrane fraction and the membrane fraction was resuspended in 25 mM HEPES, pH 7.6, 75 mM NaCl, 1 mM EDTA. Protease inhibitors were added as described above after a sample was removed for protein determination. The membrane preparation was brought to 6 to 10 mg/ml final concentration and BSA was added to 0.5%. Membranes were stored in 1 ml aliquots (−70° C.). […]

human CCR3 [2] = target: T1, human CCR3; assay: Intracellular calcium (Calcium flux, FLIPR) assay in CREM3 cells; type: cell-based; parameters: expressed in transfected cells; host or cells: CREM3 cells (rat Y3 cell line stably expressing human CCR3); settings: CREM3 cells (human CCR3 in rat Y3 cell line)
Description: An IC50 value was interpolated from the dilution series for each compound and used to calculate a Ki value using the following equation: Ki=IC50/(1+[ligand]/Kd) Intracellular Calcium Assay: Cell Culture:
CREM3 cells, in which the human CCR3 receptor is stably expressed in the rat Y3 cell line, were cultured in DMEM high glucose containing 10% FBS, 50 U/ml penicillin, 50 μg/ml streptomycin, 2 mM L-glutamine, 1 mg/ml G418 (Gemini Bioproducts). Cells were cultured in fresh medium every 2 days.
Intracellular calcium levels were measured using a fluorometric imaging plate reader (FLIPR), (Molecular Devices, Sunnyvale Calif.) as described by the manufacturer. CREM3 cells were cultured overnight at 20,000 cells/well in 96 well black-wall clear bottom plates (Packard), precoated with 100 μg/ml poly D-lysine hydrobromide (Sigma). Adherent CREM3 cells were loaded with 4 μM Fluo-3 AM (Molecular Probes, Eugene, Oreg.), in pH 7.4 HBSS without phenol red, containing 20 mM HEPES, 0.5% FBS, 2.5 mM probenecid (Sigma), 0.04% pluronic acid (Molecular Probes) for 1 h at 37° C. […] Fluorescence data was collected at 1 s interval for 60 s, followed by collection at 2 s intervals for 60 s. Background fluorescence was quantitated in wells containing cells but no chemokines and was subtracted from all experimental samples. […]

In the case of `COc1ccc(C(=O)N2CCC(N3CC[C@@H](Cc4ccc(Cl)c(Cl)c4)[C@@H](CO)C3)CC2)c2cccnc12` (relative stereo) [Example 2-EE], the Ki (human CCR3 [1]) is reported as 2.8 nM and the IC50 (human CCR3 [2]) is reported as 3.6 nM.
